# Assay results taken from patent US20160177395A1, “BIOMARKERS FOR THE PREDICTION OF RENAL INJURY” (priority 2007, published 2016).
# “And” between values parts separate entries of the source, which are not always exact repeats. Identical values can stand only once.
# Tested on: kidney tissues of treated or untreated rats
# Experiment: Real-time qRT-PCR of marker transcripts in kidney tissue panel, discovery stage (Table 22)
# Type: in vivo, rat
# Settings: listed as Dox; for normalized Real Time PCR MMU09507_DB81_seg15: kidney; for H33998_DB71_seg19 normalized Real Time PCR / MUSCYCG1R_DB81_seg15-17 normalized Real Time PCR / RATLRFI_DB71_seg9 normalized Real Time PCR / RATRAB13X_DB71_seg11-13 normalized Real Time PCR / RNU24174_DB71_seg8 normalized Real Time PCR / W41270_DB81_seg11 normalized Real Time PCR / W64472_DB81_seg2 normalized Real Time PCR / W83813_DB81_seg27 normalized Real Time PCR / AA686189_DB71_seg6 normalized Real Time PCR expression / AI045075_DB71_seg6 normalized Real Time PCR expression / AI454051_DB71_seg0 normalized Real Time PCR expression / H31045_DB71_seg5 normalized Real Time PCR expression: rat kidney
# Description: Before RT preparation the RNA was treated with DNA-free (Ambion, cat. No. AM1906) DNase treatment and removal—according to manufacturer protocol. DNase procedure was repeated until no DNA is detected in a PCR reaction using the RNA samples.
# The mixture is then incubated for 5 min at 65° C. and then quickly chilled on ice. Thereafter, 20 μl of 5× SuperscriptII first strand buffer (Invitrogen, Cat. No. Y00146), 9.6 μl 0.1M DTT (Invitrogen, Cat. No. Y00147) and 160 units RNasin (Promega, Cat. No. N251A) are added, and the mixture is incubated for 10 min at 25° C., followed by further incubation at 42° C. for 2 min. […] The resulting cDNA is diluted 1:20 in TE buffer (10 mM Tris pH=8, 1 mM EDTA pH=8).
# cDNA (5 μl), prepared as described above, is used as a template in Real-Time PCR reactions using the SYBR Green I assay (PE Applied Biosystem) with specific primers in 100 nM concentration if not indicated otherwise and UNG Enzyme (Eurogentech or equal) Amplification is effected as follows: 50° C. for 2 min, 95° C. for 10 min, and then 40 cycles of 95° C. for 15 sec, followed by 60° C. for 1 min (if not indicated otherwise). Amplification step is followed by dissociation step. Detection is performed by using the PE Applied Biosystem SDS 7000. The cycle in which the reactions achieved a threshold level (Ct) of fluorescence is registered and is used to calculate the relative transcript quantity in the RT reactions. Non-detected samples are assigned Ct value of 41 and are calculated accordingly. The relative quantity is calculated using the equation Q=efficiencŷ-Ct. The efficiency of the PCR reaction is calculated from a standard curve, created by using serial dilutions of several reverse transcription (RT) reactions. To minimize inherent differences in the RT reaction, the resulting relative quantities are normalized to normalization factor calculated as follows: […]
# The relative quantity (Q) of each housekeeping gene in each sample is calculated as described above. In order to calculate the “relative Q relative to MED” each Q for each HSKP gene is divided by the median quantity of this gene in all panel samples. To finally achieve the normalization factor of each sample the geometric mean of all four “relative Q relative to MED” was calculated. The normalization factor was then used for further calculations.
# The markers of the present invention were tested with regard to their expression in a panel of kidney tissues samples from treated and control rats. Unless otherwise noted, all experimental data relates to the novel polynucleotides and proteins of the present invention, named according to the segment being tested (as expression was tested through RT-PCR as described). Tests were then performed as described in the “Materials and Experimental Procedures” section above.
# The qRT-PCR measurements were normalized according to each samples normalization factor as described in “RT Preparation and Real-Time qRT-PCR Analysis” and further multiplied by a constant factor for ease of viewing.
# [1] = day1, individual animals (F and M)
# [2] = day5, individual animals (F and M)
# [3] = day28, individual animals (F and M)
smiles,measurement,setting,value
COc1cccc2c1C(=O)c1c(O)c3c(c(O)c1C2=O)C[C@@](O)(C(=O)CO)C[C@@H]3O[C@H]1C[C@H](N)[C@H](O)[C@H](C)O1 [Doxorubicin],normalized Real Time PCR MMU09507_DB81_seg15,"female rats, day1",0.48 and 0.52 and 0.93
same,normalized Real Time PCR MMU09507_DB81_seg15,"female rats, day5",2.07 and 1.46 and 1.82
same,normalized Real Time PCR MMU09507_DB81_seg15,"female rats, day28",4.47 and 2.99 and 2.89
same,normalized Real Time PCR MMU09507_DB81_seg15,"male rats, day1",0.74 and 0.71 and 0.59
same,normalized Real Time PCR MMU09507_DB81_seg15,"male rats, day5",1.74 and 1.67
same,normalized Real Time PCR MMU09507_DB81_seg15,"male rats, day28",3.04 and 2.93 and 2.13
same,H33998_DB71_seg19 normalized Real Time PCR,[1],1.25 and 1.34 and 2.14 and 0.97 and 1.07 and 2.75
same,MUSCYCG1R_DB81_seg15-17 normalized Real Time PCR,[1],1.66 and 1.12 and 1.36 and 0.56 and 0.64 and 0.66
same,RATLRFI_DB71_seg9 normalized Real Time PCR,[1],0.25 and 0.21 and 0.31 and 0.46 and 0.48 and 0.24
same,RATRAB13X_DB71_seg11-13 normalized Real Time PCR,[1],1.1 and 0.9 and 1 and 0.88 and 1.09 and 0.86
same,RNU24174_DB71_seg8 normalized Real Time PCR,[1],0.29 and 0.35 and 0.31 and 0.48 and 0.49 and 0.36
same,W41270_DB81_seg11 normalized Real Time PCR,[1],2.24 and 1.2 and 1.56 and 1.74 and 0.95 and 0.91
same,W64472_DB81_seg2 normalized Real Time PCR,[1],1.58 and 1.09 and 1.15 and 0.86 and 0.77 and 0.56
same,W83813_DB81_seg27 normalized Real Time PCR,[1],2.9 and 1.56 and 2 and 0.68 and 0.78 and 0.64
same,AA686189_DB71_seg6 normalized Real Time PCR expression,"day1, individual animals",0.59 and 0.49 and 0.39 and 0.78 and 0.4 and 0.26
same,AI045075_DB71_seg6 normalized Real Time PCR expression,"day1, individual animals",1.12 and 1.21 and 0.78 and 0.61 and 0.64 and 3.12
same,AI454051_DB71_seg0 normalized Real Time PCR expression,"day1, individual animals",1.2 and 1.05 and 1.54 and 0.8 (2×) and 1.03
same,H31045_DB71_seg5 normalized Real Time PCR expression,"day1, individual animals",1.15 and 0.3 and 1.95 and 0.23 and 0.32 and 0.75
same,H33998_DB71_seg19 normalized Real Time PCR,[2],2.39 and 1.29 and 3.68 and 1.19 and 1.37
same,MUSCYCG1R_DB81_seg15-17 normalized Real Time PCR,[2],1.51 and 1.97 and 3.17 and 1.65 and 2
same,RATLRFI_DB71_seg9 normalized Real Time PCR,[2],0.46 and 0.29 and 0.18 and 0.47 and 0.25
same,RATRAB13X_DB71_seg11-13 normalized Real Time PCR,[2],1.17 and 1.16 and 0.94 and 0.7 and 0.83
same,RNU24174_DB71_seg8 normalized Real Time PCR,[2],0.83 and 0.59 and 0.63 and 1.08 and 0.87
same,W41270_DB81_seg11 normalized Real Time PCR,[2],1.71 and 1.37 and 2.13 and 1.64 and 1.35
same,W64472_DB81_seg2 normalized Real Time PCR,[2],1.97 and 1.36 and 2.36 and 3 and 2.54
same,W83813_DB81_seg27 normalized Real Time PCR,[2],2.28 and 1.99 and 2.9 and 1.3 and 1.41
same,AA686189_DB71_seg6 normalized Real Time PCR expression,"day5, individual animals",1.2 and 0.6 and 0.51 and 0.48 and 0.38
same,AI045075_DB71_seg6 normalized Real Time PCR expression,"day5, individual animals",0.93 (2×) and 2.05 and 0.76 and 0.57
same,AI454051_DB71_seg0 normalized Real Time PCR expression,"day5, individual animals",1.17 and 1.35 and 1.44 and 0.3 and 0.95
same,H31045_DB71_seg5 normalized Real Time PCR expression,"day5, individual animals",1.86 and 1.19 and 0.52 and 0.35 and 1.41
same,H33998_DB71_seg19 normalized Real Time PCR,[3],0.48 and 0.58 and 0.96 and 0.64 and 0.44 and 0.54
same,MUSCYCG1R_DB81_seg15-17 normalized Real Time PCR,[3],1.07 and 1.52 and 1.26 and 0.99 and 0.98 and 1.28
same,RATLRFI_DB71_seg9 normalized Real Time PCR,[3],0.72 and 0.4 and 1.47 and 8.34 and 0.53 and 1.08
